# In patent publication US11478476B2 (CONTERA PHARMA APS, priority 2014, dated 2022):
# Assays:
# [1] = test system: PD model rats; test: Stepping test (adjusting steps) in PD model rats; type: in vivo, rat; settings: 10 mg/kg, sc; PD model rats
# Description: The stepping test (Schallert et al., 1992) was performed as described by Kirik et al., 2001 with little modifications. Briefly, the rat was held by the experimenter fixing its hindlimbs with one hand and the forelimb not to be monitored with the other, while the unrestrained forepaw was touching the table. The number of adjusting steps was counted, while the rat was moved sideways along the table surface (90 cm in 5 s), in the forehand and backhand direction, for both forelimbs, and the average of the steps in the two directions is considered.
# 30 male PD model rats were used for adjusting steps test with the following groups: • 1. Vehicle 1+Vehicle 2 (n=7) • 2. Vehicle 1+L-DOPA (10 mg/kg, sc) (n=7) • 3. 6-OH-Busp (3 mg/kg, sc)+Vehicle 2 (n=8) • 4. 6-OH-Busp (3 mg/kg, sc)+L-DOPA (10 mg/kg, sc)
# The PD rats were handled for 3 consecutive days. Vehicle 1 or 6-OH-Busp will s.c. dosed 61 min before adjusting steps test. Vehicle 2 or L-DOPA/Benserazide dosed 60 min before adjusting steps test. On testing day, the rats were held by both hind limbs and the untested forepaw. The test forepaw was placed on a flat surface and dragged in the forehand direction for 90 cm distance over 5 s. The number of adjusting steps was counted for both paws in the backhand and forehand directions of movement. […] Data were analyzed and graphed by Graph Pad Prism 6.
# [2] = test system: L-DOPA induced dyskinesia (LID) model rats; test: L-DOPA induced AIMs in 6-OHDA lesioned LID model rats; type: in vivo, rat
# Excerpt: Animals: 80 experimentally-naïve, male, 9 weeks old Sprague-Dawley rats at body weight of 200 to 250 g arrive at the laboratory at least 1 week prior to behavioural testing. Rats were housed in groups of n=2/cage. Animals had ad libitum access to standard rodent chow and water. Animal housing and testing rooms were maintained under controlled environmental conditions and were within close proximity of each other. Animal housing rooms were on a 12-hour light-dark cycle with lights on at 6:00 AM and maintained at 70° F./21° C. (range: 68-72° F./20-22° C.) with a humidity range of 20-40%. Testing rooms were maintained at 68-72° F. with a humidity range of 20-40%. DA (dopamine)-denervating lesions were performed by unilateral injection of 6-OHDA in the ascending nigrostriatal pathway. Rats were anesthetized with pentobarbital sodium 40 mg/kg (i.p.) and positioned in a stereotactic frame. 6-OHDA was injected into the right ascending DA bundle at the following coordinates relative to bregma and dural surface: A (anterior-posterior), L (lateral), V (dorsoventral): A −1.8, L −2.0, V −8.6, tooth bar 0.0.
# The neurotoxin injections were performed at a rate of 1 ul/min, and the injection cannula is left in place for an additional 2-3 min thereafter. Two weeks after surgery, contralateral full body turns were recorded over 30 min, following s.c. injection of 0.5 mg/kg of apomorphine sulfate. The animals were placed in plastic Perspex bowls (30 cm in diameter) and the rotational behavior (360° turns) is recorded by an automated rotometer for […] after the s.c. injection of 0.5 mg/kg of apomorphine sulfate. Apomorphine (0.5 mg/kg, s.c.) induced contralateral rotation in unilateral 6-OHDA lesioned rats. 73 rats with rotations ≥180/30 min, indicating >90% DA lesion in nigrostriatal pathway, were chosen as the PD model rats for chronic L-DOPA treatment.
# Starting one day after the apomorphine-induced rotation test, 6-OHDA-lesioned rats were treated with daily L-DOPA (Sigma-Aldrich, Germany) (8 mg/kg plus benserazide 15 mg/kg, s.c.) for 21 days. Rats were placed individually in transparent plastic cages without bedding material and scored every 20 min following the injection of L-DOPA for the entire time course of dyskinesias (120 min). The AIMs were classified into four subtypes according to their topographic distributions such as Locomotive, Forelimb, Axial and Orolingual behaviors. The severity of each AIM subtype was assessed by using scores from 0 to 4 (1: occasional, i.e. present less than 50% of the time; 2: frequent, i.e. present more than 50% of the time; 3: continuous, but interrupted by strong sensory stimuli; 4: continuous, not interrupted by strong sensory stimuli). In this study, rats with an AIMs≥28 were considered highly dyskinetic, while rats with an AIMs<28 either low or none-dyskinetic.
# After chronic L-DOPA treatment on PD rats for 21 days, 42 LID model rats (348 g˜501 g, 15 weeks old) were successfully created with the criteria of total AIM scores (Lo+Li+AX+OI)≥28 points.
# AIMs ratings were performed by an investigator who was kept unaware of the pharmacological treatment administered to each rat (experimentally blinded). In order to quantify the severity of the AIMs, rats were observed individually in their standard cages every 20th minute at 20-180 min after an injection of I-DOPA. The AIM's were classified into four subtypes:
# Each of the four subtypes are scored on a severity scale from 0 to 4, where 0=absent, 1=present during less than half of the observation time, 2=present for more than half of the observation time, 3=present all the time but suppressible by external stimuli, and 4=present all the time and not suppressible by external stimuli. Axial, limb and orolingual AIMs are found to be modulated in a similar way by all the tested substances.
# Rats were tested for AIMs using the sum of locomotive (LO) oraxial (AX), limb (LI), and orolingual (OL) AIM scores per testing session for statistical analyses. […]
# [3] = target: T1, human recombinant 5-HT1A receptors (Homo sapiens, UniProt P08908); settings: cited from earlier work; for Ki: nM printed, table head has no unit
# T1 sequence (P08908 1-422): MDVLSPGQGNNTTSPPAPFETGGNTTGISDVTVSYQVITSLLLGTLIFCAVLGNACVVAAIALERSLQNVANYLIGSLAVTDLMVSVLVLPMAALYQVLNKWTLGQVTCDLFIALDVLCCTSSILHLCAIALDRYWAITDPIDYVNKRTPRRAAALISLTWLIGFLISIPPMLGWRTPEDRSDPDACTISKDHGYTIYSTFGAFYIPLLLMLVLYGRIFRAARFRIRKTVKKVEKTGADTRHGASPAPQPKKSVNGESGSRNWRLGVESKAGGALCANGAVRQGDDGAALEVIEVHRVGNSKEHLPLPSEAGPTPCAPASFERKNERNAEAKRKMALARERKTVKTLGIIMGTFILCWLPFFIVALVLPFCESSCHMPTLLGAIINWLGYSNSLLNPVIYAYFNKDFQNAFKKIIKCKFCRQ
# [4] = cited from earlier work
# [5] = target: T2, human recombinant dopamine D3 receptor (Homo sapiens, UniProt P35462); settings: read-out: D3 affinity Ki ± SEM; cited from earlier work
# [6] = target: T3, human recombinant dopamine D2 receptor (Homo sapiens, UniProt P14416); settings: saturating concentrations of dopamine; read-out: D2 efficacy IC50 ± SEM; cited from earlier work
# [7] = target: T3, human recombinant dopamine D2 receptor; settings: read-out: D2 affinity Ki ± SEM; cited from earlier work
# [8] = target: T4, human recombinant dopamine D4 receptor (Homo sapiens, UniProt P21917); settings: read-out: D4 affinity Ki ± SEM; cited from earlier work
# T4 sequence (P21917 1-419): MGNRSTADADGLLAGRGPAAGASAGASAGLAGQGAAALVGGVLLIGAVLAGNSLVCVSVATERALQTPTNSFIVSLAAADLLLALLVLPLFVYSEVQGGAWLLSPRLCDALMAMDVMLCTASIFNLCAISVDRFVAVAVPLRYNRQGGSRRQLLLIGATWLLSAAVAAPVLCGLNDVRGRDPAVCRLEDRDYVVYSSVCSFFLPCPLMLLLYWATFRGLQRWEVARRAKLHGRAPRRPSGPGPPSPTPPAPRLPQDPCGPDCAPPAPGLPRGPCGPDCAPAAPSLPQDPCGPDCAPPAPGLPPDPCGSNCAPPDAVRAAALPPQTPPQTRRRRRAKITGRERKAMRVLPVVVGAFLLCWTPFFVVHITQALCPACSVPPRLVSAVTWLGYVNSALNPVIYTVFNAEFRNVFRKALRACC
# [9] = target: T4, human recombinant dopamine D4 receptor; settings: saturating concentrations of dopamine; read-out: D4 efficacy IC50 ± SEM; cited from earlier work
# [10] = target: T2, human recombinant dopamine D3 receptor; settings: saturating concentrations of dopamine; read-out: D3 efficacy IC50 ± SEM; cited from earlier work
# [11] = test system: dopamine D3 receptors; settings: oral buspirone at therapeutically relevant doses; cited from earlier work
# [12] = after administration of radiolabeled buspirone; cited from earlier work
# [13] = oral administration of buspirone, human volunteers; analyte = label (6-OH-Busp: total, both enantiomers); cited from earlier work
# [14] = test system: Parkinson's disease patients; settings: cited from earlier work
# [15] = test system: D2 receptors; settings: oral buspirone; cited from earlier work
# T2 sequence (P35462 whole entry): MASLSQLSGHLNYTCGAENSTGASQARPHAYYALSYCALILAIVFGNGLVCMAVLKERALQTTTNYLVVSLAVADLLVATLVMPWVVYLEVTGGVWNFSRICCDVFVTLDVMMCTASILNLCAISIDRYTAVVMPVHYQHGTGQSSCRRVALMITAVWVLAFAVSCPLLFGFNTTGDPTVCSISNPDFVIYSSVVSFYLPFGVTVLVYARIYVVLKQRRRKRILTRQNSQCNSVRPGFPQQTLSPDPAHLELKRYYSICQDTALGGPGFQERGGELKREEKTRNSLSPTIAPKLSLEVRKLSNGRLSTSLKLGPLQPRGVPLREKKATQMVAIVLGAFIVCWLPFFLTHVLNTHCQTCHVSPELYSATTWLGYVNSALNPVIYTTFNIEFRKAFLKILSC
# T3 sequence (P14416 whole entry): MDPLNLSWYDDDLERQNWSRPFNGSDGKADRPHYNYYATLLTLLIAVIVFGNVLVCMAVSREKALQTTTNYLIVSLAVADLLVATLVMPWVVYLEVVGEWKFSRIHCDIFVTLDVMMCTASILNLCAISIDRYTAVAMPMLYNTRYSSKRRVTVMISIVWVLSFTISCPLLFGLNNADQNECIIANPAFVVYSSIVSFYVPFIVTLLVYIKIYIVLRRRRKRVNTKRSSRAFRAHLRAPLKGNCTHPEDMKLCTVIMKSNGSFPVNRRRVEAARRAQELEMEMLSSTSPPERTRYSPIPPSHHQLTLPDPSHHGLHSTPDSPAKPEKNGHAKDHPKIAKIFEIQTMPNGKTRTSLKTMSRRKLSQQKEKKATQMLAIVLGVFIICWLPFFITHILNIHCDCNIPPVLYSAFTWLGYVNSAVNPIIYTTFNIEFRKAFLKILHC
smiles,measurement,setting,value
"N[C@@H](Cc1ccc(O)c(O)c1)C(=O)O [L-DOPA, 3,4-dihydroxyphenylalanine, reference compound]",number of adjusting steps,[1],increased
"CN(C)CCc1c[nH]c2ccc(C[C@H]3COC(=O)N3)cc12 [Zolmitriptan, (S)-4-({3-[2-(dimethylamino)ethyl]-1H-indol-5-yl}methyl)-1,3-oxazolidin-2-one, reference compound]",AIMs at any time points,"[2]; Example XIII, 10 mg/kg s.c.",did not have any effects
"c1cnc(N2CCNCC2)nc1 [1-PP, 1-(2-pyrimidinyl)-piperazine]",IC50,[3],> 1000 nM
same,exposure (area under the concentration-time profile) of metabolite relative to parent compound,[4]; oral dosing of buspirone in rats,49 fold
"CN1CC(=O)N=C1NC(=O)Nc1cccc(Cl)c1 [Fenobam, 1-(3-chlorophenyl)-3-(3-methyl-5-oxo-4H-imidazol-2-yl)urea, reference compound]",AIMs of LID rats at any time points,"[2]; Example XIV, 30 mg/kg, s.c. as printed",did not have significant effects
O=C1CC2(CCCC2)CC(=O)N1CCCCN1CCN(c2ncc(O)cn2)CC1 [5-OH-Busp],IC50,[3],928 nM
same,Ki,[3],464 nM
same,Ki,[5],261 ± 46 nM
same,IC50,[6],2600 ± 1300 nM
same,Ki,[7],4010 ± 792 nM
same,Ki,[8],107 ± 44.8 nM
same,IC50,[9],1400 ± 820 nM
same,IC50,[10],930 ± 460 nM
O=C1CC2(CCC(O)C2)CC(=O)N1CCCCN1CCN(c2ncccn2)CC1 (stereo not drawn) [3-OH-Busp],IC50,[3],652 nM
same,Ki,[3],326 nM
"O=C1CC2(CCCC2)CC(=O)N1CCCCN1CCN(c2ncccn2)CC1 [Buspirone, 8-[4-(4-pyrimidin-2-ylpiperazin-1-yl)butyl]-8-azaspiro[4.5]decane-7,9-dione, reference compound]",in vivo blockade of dopamine D3 receptors (PET),[11],blocks
same,Ki,[5],98 ± 16 nM
same,unchanged buspirone as share of total radioactivity in human plasma,[12],less than 2%
same,total AIMs of LID rats at time points,"[2]; Example XII, 1 mg/kg s.c., 50, 70, 90, 110, 130, 150, 170 and 190 min, vs vehicle",significantly attenuated
same,AUC of total AIMs from 10 min to 190 min,"[2]; Example XII, buspirone 1 mg/kg s.c., 6-OH-Busp 0.3, 1 and 3 mg/kg s.c., vs vehicle",decreased
same,AUC0-INF,[13],3.93 ngxh/ml
same,Cmax,[13],1.39 ng/mL
same,disability ratings,[14]; 100 mg/day,significant worsening
same,dyskinesia,[14]; 100 mg/day,reduced
same,effects on Parkinson's disease or dyskinesia,[14]; 10-60 mg/day,did not have any effects
same,in vivo blockade of D2 receptors (PET),[15],did not cause blockade
same,Ki,[8],29.2 ± 11.3 nM
same,IC50,[9],350 ± 60 nM
same,IC50,[10],440 ± 180 nM
same,plasma half-life,[4]; rats,54 ± 24 min
